Reference: PubChem BioAssay (NCI)
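GI50 marks 50% less growth. TGI is the concentration that stops growth completely.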

Legend:
Assay in all cases: NCI-60 cell line screen, 384-well format
HCT-15 colon = tested on: HCT-15 colon
UO-31 renal = tested on: UO-31 renal
T-47D breast = tested on: T-47D breast
SK-OV-3 ovarian = tested on: SK-OV-3 ovarian
DU-145 prostate = tested on: DU-145 prostate
KM12 colon = tested on: KM12 colon
NCI-H460 NSCLC = tested on: NCI-H460 NSCLC
HL-60(TB) leukemia = tested on: HL-60(TB) leukemia
HOP-62 NSCLC = tested on: HOP-62 NSCLC
NCI-H322M lung = tested on: NCI-H322M lung
PC-3 prostate = tested on: PC-3 prostate
786-0 renal = tested on: 786-0 renal
MDA-MB-435 melanoma = tested on: MDA-MB-435 melanoma
OVCAR-4 ovarian = tested on: OVCAR-4 ovarian
CAKI-1 renal = tested on: CAKI-1 renal
MOLT-4 leukemia = tested on: MOLT-4 leukemia
U251 glioblastoma = tested on: U251 glioblastoma
K-562 leukemia = tested on: K-562 leukemia
SNB-19 CNS = tested on: SNB-19 CNS
SK-MEL-28 melanoma = tested on: SK-MEL-28 melanoma
LOX IMVI melanoma = tested on: LOX IMVI melanoma
HT29 colon = tested on: HT29 colon
TK-10 renal = tested on: TK-10 renal
NCI-H522 lung = tested on: NCI-H522 lung
MDA-MB-231 breast = tested on: MDA-MB-231 breast
EKVX NSCLC = tested on: EKVX NSCLC
OVCAR-5 ovarian = tested on: OVCAR-5 ovarian
COLO 205 colon = tested on: COLO 205 colon
SNB-75 CNS = tested on: SNB-75 CNS
HCT-116 colon = tested on: HCT-116 colon
RXF 393 renal = tested on: RXF 393 renal
BT-549 breast = tested on: BT-549 breast
MCF7 breast = tested on: MCF7 breast
OVCAR-8 ovarian = tested on: OVCAR-8 ovarian
SF-295 CNS = tested on: SF-295 CNS
SN12C renal = tested on: SN12C renal
NCI/ADR-RES ovarian = tested on: NCI/ADR-RES ovarian
HS 578T breast = tested on: HS 578T breast
CCRF-CEM leukemia = tested on: CCRF-CEM leukemia
MALME-3M melanoma = tested on: MALME-3M melanoma
NCI-H226 lung = tested on: NCI-H226 lung
M14 melanoma = tested on: M14 melanoma
OVCAR-3 ovarian = tested on: OVCAR-3 ovarian
NCI-H23 lung = tested on: NCI-H23 lung
UACC-62 melanoma = tested on: UACC-62 melanoma
SW-620 colon = tested on: SW-620 colon
ACHN renal = tested on: ACHN renal
HOP-92 NSCLC = tested on: HOP-92 NSCLC
SK-MEL-5 melanoma = tested on: SK-MEL-5 melanoma
A498 renal = tested on: A498 renal
A549 NSCLC = tested on: A549 NSCLC
IGROV1 ovarian = tested on: IGROV1 ovarian
UACC-257 melanoma = tested on: UACC-257 melanoma
HCC-2998 colon = tested on: HCC-2998 colon
SF-539 CNS = tested on: SF-539 CNS
SF-268 CNS = tested on: SF-268 CNS
RPMI-8226 leukemia = tested on: RPMI-8226 leukemia
MDA-MB-468 breast = tested on: MDA-MB-468 breast

C1=C/COCc2cc(ccc2OCCN2CCCC2)Nc2nccc(n2)-c2ccc(o2)COC/1
GI50 (HCT-15 colon): 950 nM | TGI (HCT-15 colon): 3230 nM | GI50 (UO-31 renal): 1640 nM | TGI (UO-31 renal): 3850 nM | GI50 (T-47D breast): 613 nM | TGI (T-47D breast): 2430 nM | GI50 (SK-OV-3 ovarian): 758 nM | TGI (SK-OV-3 ovarian): 2880 nM | GI50 (DU-145 prostate): 1560 nM | TGI (DU-145 prostate): 10500 nM | GI50 (KM12 colon): 325 nM | TGI (KM12 colon): 1920 nM | GI50 (NCI-H460 NSCLC): 792 nM | TGI (NCI-H460 NSCLC): 2270 nM | GI50 (HL-60(TB) leukemia): 479 nM | TGI (HL-60(TB) leukemia): 1680 nM | GI50 (HOP-62 NSCLC): 1200 nM | TGI (HOP-62 NSCLC): 2960 nM | GI50 (NCI-H322M lung): 1320 nM | TGI (NCI-H322M lung): 3510 nM | GI50 (PC-3 prostate): 1490 nM | TGI (PC-3 prostate): 4880 nM | GI50 ([…]-0 renal): 1520 nM | TGI (786-0 renal): 4970 nM | GI50 (MDA-MB-435 melanoma): 1470 nM | TGI (MDA-MB-435 melanoma): 4090 nM | GI50 (OVCAR-4 ovarian): 2000 nM | TGI (OVCAR-4 ovarian): 5100 nM | GI50 (CAKI-1 renal): 452 nM | TGI (CAKI-1 renal): 2340 nM | GI50 (MOLT-4 leukemia): 1020 nM | TGI (MOLT-4 leukemia): 2190 nM | GI50 (U251 glioblastoma): 1920 nM | TGI (U251 glioblastoma): 4790 nM | GI50 (K-562 leukemia): 1390 nM | TGI (K-562 leukemia): 4120 nM | GI50 (SNB-19 CNS): 2580 nM | TGI (SNB-19 CNS): 10600 nM | GI50 (SK-MEL-28 melanoma): 1430 nM | TGI (SK-MEL-28 melanoma): 3000 nM | GI50 (LOX IMVI melanoma): 892 nM | TGI (LOX IMVI melanoma): 2180 nM | GI50 (HT29 colon): 1290 nM | TGI (HT29 colon): 2820 nM | GI50 (TK-10 renal): 2390 nM | TGI (TK-10 renal): 9400 nM | GI50 (NCI-H522 lung): 1090 nM | TGI (NCI-H522 lung): 2400 nM | GI50 (MDA-MB-231 breast): 1840 nM | TGI (MDA-MB-231 breast): 9870 nM | GI50 (EKVX NSCLC): 1490 nM | TGI (EKVX NSCLC): 3370 nM | GI50 (OVCAR-5 ovarian): 590 nM | TGI (OVCAR-5 ovarian): 4100 nM | GI50 (COLO 205 colon): 1480 nM | TGI (COLO 205 colon): 3920 nM | GI50 (SNB-75 CNS): 1060 nM | TGI (SNB-75 CNS): 2270 nM | GI50 (HCT-116 colon): 852 nM | TGI (HCT-116 colon): 10400 nM | GI50 (RXF 393 renal): 1250 nM | TGI (RXF 393 renal): 2570 nM | GI50 (BT-549 breast): 1720 nM | TGI (BT-549 breast): 3210 nM | GI50 (MCF7 breast): 563 nM | TGI (MCF7 breast): 1980 nM | GI50 (OVCAR-8 ovarian): 1680 nM | TGI (OVCAR-8 ovarian): 4270 nM | GI50 (SF-295 CNS): 2050 nM | TGI (SF-295 CNS): 4490 nM | GI50 (SN12C renal): 587 nM | TGI (SN12C renal): 1890 nM | GI50 (NCI/ADR-RES ovarian): 1970 nM | TGI (NCI/ADR-RES ovarian): 4000 nM | GI50 (HS 578T breast): 1540 nM | TGI (HS 578T breast): 2970 nM | GI50 (CCRF-CEM leukemia): 1530 nM | TGI (CCRF-CEM leukemia): 2920 nM | GI50 (MALME-3M melanoma): 1060 nM | TGI (MALME-3M melanoma): 2270 nM | GI50 (NCI-H226 lung): 1210 nM | TGI (NCI-H226 lung): 4180 nM | GI50 (M14 melanoma): 838 nM | TGI (M14 melanoma): 3050 nM | GI50 (OVCAR-3 ovarian): 1330 nM | TGI (OVCAR-3 ovarian): 3230 nM | GI50 (NCI-H23 lung): 879 nM | TGI (NCI-H23 lung): 2190 nM | GI50 (UACC-62 melanoma): 798 nM | TGI (UACC-62 melanoma): 2060 nM | GI50 (SW-620 colon): 2440 nM | TGI (SW-620 colon): 8150 nM | GI50 (ACHN renal): 672 nM | TGI (ACHN renal): 11400 nM | GI50 (HOP-92 NSCLC): 1570 nM | TGI (HOP-92 NSCLC): 5460 nM | GI50 (SK-MEL-5 melanoma): 1030 nM | TGI (SK-MEL-5 melanoma): 2260 nM | GI50 (A498 renal): 710 nM | TGI (A498 renal): 4220 nM | GI50 (A549 NSCLC): 1250 nM | TGI (A549 NSCLC): 4060 nM | GI50 (IGROV1 ovarian): 433 nM | TGI (IGROV1 ovarian): 1900 nM | GI50 (UACC-257 melanoma): 1460 nM | TGI (UACC-257 melanoma): 2800 nM | GI50 (HCC-2998 colon): 1270 nM | TGI (HCC-2998 colon): 2830 nM | GI50 (SF-539 CNS): 1610 nM | TGI (SF-539 CNS): 3000 nM | GI50 (SF-268 CNS): 256 nM | TGI (SF-268 CNS): 964 nM | GI50 (RPMI-8226 leukemia): 1790 nM | TGI (RPMI-8226 leukemia): 3220 nM | GI50 (MDA-MB-468 breast): 1140 nM | TGI (MDA-MB-468 breast): 2370 nM
